Patent US10111435B2, “Herbicidal compositions containing N-(1,3,4-oxadiazol-2-yl)-aryl carboxylic acid amides” (BAYER CROPSCIENCE AKTIENGESELLSCHAFT, priority 2013, dated 2018)
Read-outs that look alike come from different tables or passages of the source.

Tests used:
Assay type in all cases: in vivo
Solanum nigrum (SOLNI) = assay: greenhouse post-emergence herbicidal efficacy against SOLNI
Method: (§1) All trials whose results are shown were conducted in a greenhouse by the methodology specified below. The effect of the inventive herbicidal compositions was examined on the following harmful plants 14 and 21 days after application:
(§2) Echinochloa crus-galli (ECHCG), Eleusine indica (ELEIN), Setaria viridis (SETVI), Amaranthus retroflexus (AMARE), Chenopodium album (CHEAL), Kochia scoparia (KCHSC), Solanum nigrum (SOLNI), Avena fatua (AVEFA), Bromus sterilis (BROST), Lolium multiflorum (LOLMU), Phalaris minor (PHAMI), Poa annua (POAAN), Galium aparine (GALAP), Matricaria inodora (MATIN) and Polygonum convolvulus (POLCO).
(§3) The harmful plant seeds were sown in pots (diameter 8 cm) with sandy loam soil and germinated under optimal conditions. The inventive herbicidal compositions or the active ingredients alone were applied post-emergence to the planted pots with a spray volume of 300 L/ha. The trial was conducted in a greenhouse under optimum growth conditions. The herbicidal effects were assessed visually by comparison of untreated and treated plants. The percentages mean: 0%=no effects, 100%=the plants die off completely). The percentages are used to calculate interactions between individual treatments and combination treatments according to S. R. Colby, Weeds 15, pages 20 to 22 (1967).
(§4) The abbreviations mean: • a.i.=active ingredient • E^C=expected value according to Colby (E^C=A+B−A×B/100) • Diff: =difference (%) of measured value from expected value (%) (measured value minus expected value)
(§5) Assessment: • measured value E is greater than E^C:->synergism (+ diff.) • measured value E equals E^C:->additive effect • measured value E is smaller than E^C:->antagonism(− diff.)

[1] = test system: Amaranthus retroflexus (AMARE); assay: greenhouse post-emergence herbicidal efficacy against AMARE
Method: as §1, §2, §3, §4, §5

[2] = test system: Echinochloa crus-galli (ECHCG); assay: greenhouse post-emergence herbicidal efficacy against ECHCG
Method: as §1, §2, §3, §4, §5

Setaria viridis (SETVI) = assay: greenhouse post-emergence herbicidal efficacy against SETVI
Method: as §1, §2, §3, §4, §5

DIGSA = assay: greenhouse post-emergence herbicidal efficacy against DIGSA
Method: as §1, §3, §4, §5

Eleusine indica (ELEIN) = assay: greenhouse post-emergence herbicidal efficacy against ELEIN; conditions: Eleusine indica, post-emergence; for pest or weed control at 300 g/ha / pest or weed control at 1200 g/ha: read-out: Efficacy; for pest or weed control at […]: 2.5 g of a.i./ha; for pest or weed control at 10 g/ha: 10 g of a.i./ha
Method: as §1, §2, §3, §4, §5

[3] = test system: Lolium multiflorum (LOLMU); assay: greenhouse post-emergence herbicidal efficacy against LOLMU; conditions: 14 days after application
How it was run: (§6)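 Read-out is visual percent herbicidal effect relative to untreated plants, taken 14 and 21 days after treatment. Pot-grown plants in sandy loam received mixtures or solo active ingredients post-emergence at a spray volume of 300 L/ha under optimum greenhouse conditions.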

Avena fatua (AVEFA) = assay: greenhouse post-emergence herbicidal efficacy against AVEFA; conditions: 14 days after application; g of a.i./ha: A1-7 2.5, saflufenacil 2
How it was run: as §6

Kochia scoparia (KCHSC) = assay: greenhouse post-emergence herbicidal efficacy against KCHSC; conditions: 0.5 g of a.i./ha
Method: as §1, §2, §3, §4, §5

Bromus sterilis (BROST) = assay: greenhouse post-emergence herbicidal efficacy against BROST; conditions: 21 days after application; g of a.i./ha: A1-7 10, saflufenacil 8
How it was run: as §6

[4] = test system: Polygonum convolvulus (POLCO); assay: greenhouse post-emergence herbicidal efficacy against POLCO
How it was run: as §6

[5] = test system: Chenopodium album (CHEAL); assay: greenhouse post-emergence herbicidal efficacy against CHEAL
Method: as §1, §2, §3, §4, §5

[6] = 14 days after application, 300 g of a.i./ha
[7] = 14 days after application, 1200 g of a.i./ha
[8] = 21 days after application, 300 g of a.i./ha
[9] = 21 days after application, 1200 g of a.i./ha
[10] = 14 days after application, 0.5 g of a.i./ha
[11] = 14 days after application, 2 g of a.i./ha
[12] = 21 days after application, 0.5 g of a.i./ha
[13] = 21 days after application, 2 g of a.i./ha
[14] = 21 days after application, 10 g of a.i./ha
[15] = 21 days after application, 2.5 g of a.i./ha
[16] = 14 days after application, 10 g of a.i./ha
[17] = 336 h, 14 days after application
[18] = 504 h, 21 days after application

SMILES: O=c1[nH]c2c(c(=O)n1C1CCCCC1)CCC2 [lenacil]
- Efficacy (Solanum nigrum (SOLNI); [6]): 0%
- Efficacy (Solanum nigrum (SOLNI); [7]): 0%
- Efficacy (Solanum nigrum (SOLNI); [8]): 0%
- Efficacy (Solanum nigrum (SOLNI); [9]): 0%
- Efficacy [1, 7]: 0%
- Efficacy [1, 8]: 0%
- Efficacy [1, 9]: 0%
- Efficacy [2, 6]: 0%
- Efficacy [2, 7]: 0%
- Efficacy [2, 8]: 0%
- Efficacy [2, 9]: 0%
- Efficacy (Setaria viridis (SETVI); [6]): 0%
- Efficacy (Setaria viridis (SETVI); [7]): 0%
- Efficacy (Setaria viridis (SETVI); [8]): 0%
- Efficacy (Setaria viridis (SETVI); [9]): 0%
- Efficacy (DIGSA; [6]): 0%
- Efficacy (DIGSA; [7]): 0%
- Efficacy (DIGSA; [8]): 0%
- Efficacy (DIGSA; [9]): 0%
- pest or weed control at 300 g/ha (Eleusine indica (ELEIN); 336 h): 0%
- pest or weed control at 1200 g/ha (Eleusine indica (ELEIN); 336 h): 0%
- pest or weed control at 300 g/ha (Eleusine indica (ELEIN); 504 h): 0%
- pest or weed control at 1200 g/ha (Eleusine indica (ELEIN); 504 h): 0%

SMILES: CCS(=O)(=O)c1c(C(F)(F)F)ccc(C(=O)Nc2nnc(C)o2)c1Cl [A1-7]
- Efficacy (Solanum nigrum (SOLNI); [10]): 10%
- Efficacy (Solanum nigrum (SOLNI); [11]): 20%
- Efficacy (Solanum nigrum (SOLNI); [12]): 0%
- Efficacy (Solanum nigrum (SOLNI); [13]): 10%
- Efficacy [1, 10]: 30%
- Efficacy ([3]; g of a.i./ha: A1-7 2.5, saflufenacil 2): 0%
- Efficacy ([3]; g of a.i./ha: A1-7 2.5, saflufenacil 8): 0%
- Efficacy (Setaria viridis (SETVI); [12]): 30%
- Efficacy (Setaria viridis (SETVI); [13]): 75%
- Efficacy (Avena fatua (AVEFA)): 15%
- Efficacy (Kochia scoparia (KCHSC); 14 days after application): 0%
- Efficacy (Kochia scoparia (KCHSC); 21 days after application): 10%
- Efficacy (DIGSA; [11]): 20%
- Efficacy (DIGSA; [13]): 10%
- Efficacy (Bromus sterilis (BROST)): 5%
- Efficacy ([4]; 14 days after application, g of a.i./ha: A1-7 2.5, saflufenacil 2): 10%
- Efficacy ([4]; 14 days after application, g of a.i./ha: A1-7 2.5, saflufenacil 8): 10%
- Efficacy ([4]; 14 days after application, g of a.i./ha: A1-7 10, saflufenacil 2): 25%
- Efficacy ([4]; 14 days after application, g of a.i./ha: A1-7 10, saflufenacil 8): 25%
- Efficacy ([4]; 21 days after application, g of a.i./ha: A1-7 2.5, saflufenacil 2): 0%
- Efficacy ([4]; 21 days after application, g of a.i./ha: A1-7 2.5, saflufenacil 8): 0%
- Efficacy ([4]; 21 days after application, g of a.i./ha: A1-7 10, saflufenacil 2): 10%
- Efficacy ([4]; 21 days after application, g of a.i./ha: A1-7 10, saflufenacil 8): 10%
- Efficacy [5, 10]: 0%
- Efficacy [5, 11]: 50%
- Efficacy [5, 12]: 10%
- Efficacy [5, 13]: 20%

SMILES: CS(=O)(=O)c1cc(C(F)(F)F)ccc1C(=O)c1cnoc1C1CC1 [isoxaflutole]
- Efficacy (Solanum nigrum (SOLNI); [14]): 65%
- Efficacy [1, 15]: 40%
- Efficacy ([2]; 14 days after application, 2.5 g of a.i./ha): 10%
- Efficacy [2, 16]: 60%
- Efficacy [2, 15]: 10%
- Efficacy [2, 14]: 60%
- Efficacy (Setaria viridis (SETVI); [15]): 0%
- Efficacy (Setaria viridis (SETVI); [14]): 0%
- Efficacy (DIGSA; [16]): 10%
- Efficacy (DIGSA; [14]): 0%
- pest or weed control at […] (Eleusine indica (ELEIN); [17]): 20%
- pest or weed control at 10 g/ha (Eleusine indica (ELEIN); [17]): 60%
- pest or weed control at […] (Eleusine indica (ELEIN); [18]): 0%
- pest or weed control at 10 g/ha (Eleusine indica (ELEIN); [18]): 20%
